From the NIST ThermoML archive (doi:10.1021/acs.jced.7b00458)
± gives the expanded uncertainty stated by the source.

Details: 100 kPa, Liquid; for electrical conductivity: Alternating current cell with electrodes; for viscosity: Concentric cylinders viscometry; for mass density: Vibrating tube method

CCCCC[P+](CC)(CC)CC.O=S(=O)([N-]S(=O)(=O)C(F)(F)F)C(F)(F)F
Details | electrical conductivity [S/m] | mass density [kg/m3] | viscosity [mPa·s]
298.15 K | 0.21 ± 0.025 | 1304 ± 1 | 85.3 ± 0.79
300.15 K | 0.223 ± 0.027 | 1302 ± 1 | 77.43 ± 0.65
306.15 K | 0.286 ± 0.034 | 1297 ± 1 | 58.68 ± 0.4
312.15 K | 0.358 ± 0.043 | 1292 ± 1 | 45.42 ± 0.32
318.15 K | 0.435 ± 0.052 | 1287 ± 1 | 35.82 ± 0.25
324.15 K | 0.521 ± 0.063 | 1282 ± 1 | 28.79 ± 0.2
330.15 K | 0.612 ± 0.073 | 1277 ± 1 | 23.5 ± 0.17
336.15 K | 0.711 ± 0.085 | 1272 ± 1 | 19.46 ± 0.14
341.15 K | – | 1268 ± 1 | 16.79 ± 0.12
348.15 K | 0.917 ± 0.11 | 1262 ± 1 | 13.86 ± 0.1
355.15 K | – | 1256 ± 1 | 11.58 ± 0.08
361.15 K | 1.17 ± 0.14 | 1251 ± 1 | 10.02 ± 0.07
373.15 K | – | 1241 ± 1 | 7.531 ± 0.054

CCCC[N+]1(C)CCCCC1.O=S(=O)([N-]S(=O)(=O)C(F)(F)F)C(F)(F)F
Details | electrical conductivity [S/m] | mass density [kg/m3] | viscosity [mPa·s]
298.15 K | 0.139 ± 0.017 | 1382 ± 1 | 188.9 ± 3.5
300.15 K | 0.153 ± 0.018 | 1380 ± 1 | 168 ± 2.9
306.15 K | 0.202 ± 0.024 | 1375 ± 1 | 120.2 ± 1.6
312.15 K | 0.264 ± 0.032 | 1370 ± 1 | 88.67 ± 0.85
318.15 K | 0.337 ± 0.04 | 1365 ± 1 | 67.13 ± 0.5
324.15 K | 0.424 ± 0.051 | 1360 ± 1 | 52.01 ± 0.34
330.15 K | 0.519 ± 0.062 | 1355 ± 1 | 41.12 ± 0.29
336.15 K | 0.626 ± 0.075 | 1349 ± 1 | 33.12 ± 0.23
341.15 K | – | 1345 ± 1 | 27.98 ± 0.2
348.15 K | 0.876 ± 0.1 | 1339 ± 1 | 22.51 ± 0.16
355.15 K | – | 1333 ± 1 | 18.36 ± 0.13
361.15 K | 1.19 ± 0.14 | 1329 ± 1 | 15.62 ± 0.11
373.15 K | – | 1319 ± 1 | 11.62 ± 0.08

CC[P+](CC)(CC)CCOC.O=S(=O)([N-]S(=O)(=O)C(F)(F)F)C(F)(F)F
Details | electrical conductivity [S/m] | mass density [kg/m3] | viscosity [mPa·s]
298.15 K | 0.384 ± 0.046 | 1378 ± 1 | 48.14 ± 0.34
300.15 K | 0.411 ± 0.049 | 1376 ± 1 | 44.28 ± 0.31
306.15 K | 0.498 ± 0.06 | 1370 ± 1 | 34.95 ± 0.25
312.15 K | 0.608 ± 0.073 | 1365 ± 1 | 28.1 ± 0.2
318.15 K | 0.719 ± 0.086 | 1360 ± 1 | 22.97 ± 0.16
324.15 K | 0.848 ± 0.1 | 1354 ± 1 | 19.04 ± 0.14
330.15 K | 0.987 ± 0.12 | 1349 ± 1 | 16.01 ± 0.11
336.15 K | 1.13 ± 0.14 | 1344 ± 1 | 13.62 ± 0.1
341.15 K | – | 1339 ± 1 | 11.98 ± 0.09
348.15 K | 1.45 ± 0.17 | 1333 ± 1 | 10.15 ± 0.07
355.15 K | – | 1327 ± 1 | 8.692 ± 0.062
361.15 K | 1.84 ± 0.22 | 1322 ± 1 | 7.672 ± 0.055
373.15 K | – | 1311 ± 1 | 5.99 ± 0.044

CCCC[N+]1(C)CCCC1.O=S(=O)([N-]S(=O)(=O)C(F)(F)F)C(F)(F)F
Details | electrical conductivity [S/m] | mass density [kg/m3] | viscosity [mPa·s]
298.15 K | 0.393 ± 0.039 | 1395 ± 1 | 77.76 ± 0.66
300.15 K | 0.423 ± 0.042 | 1393 ± 1 | 71.11 ± 0.56
306.15 K | 0.52 ± 0.052 | 1388 ± 1 | 54.97 ± 0.36
312.15 K | 0.638 ± 0.064 | 1382 ± 1 | 43.41 ± 0.31
318.15 K | 0.772 ± 0.077 | 1377 ± 1 | 34.92 ± 0.25
324.15 K | 0.924 ± 0.092 | 1372 ± 1 | 28.56 ± 0.2
330.15 K | 1.08 ± 0.11 | 1367 ± 1 | 23.69 ± 0.17
336.15 K | 1.26 ± 0.13 | 1361 ± 1 | 19.91 ± 0.14
341.15 K | – | 1357 ± 1 | 17.37 ± 0.12
348.15 K | 1.64 ± 0.16 | 1351 ± 1 | 14.53 ± 0.1
355.15 K | – | 1345 ± 1 | 12.31 ± 0.09
361.15 K | 2.11 ± 0.21 | 1340 ± 1 | 10.78 ± 0.08
373.15 K | – | 1330 ± 1 | 8.272 ± 0.06
